The term IC50 denotes the concentration that gives 50% inhibition. Broadly, the melting point is the temperature of the solid-liquid transition.

Read-outs that look alike come from different tables or passages of the source. Bounds are passed on as bounds.

One series concerns cancer cell lines. The settings on record: antiproliferative agent; read-out: IC50, range; cited from earlier work.
The test system of series [1] is MDA-MB-231, HeLa, A549 and HT-29 cancer cell lines. The series is described as follows: Antiproliferative activity stated across the panel of cancer cell lines. The class given is cell-based, human. The settings on record: for IC50: Homo sapiens; for fold reduction in antiproliferative activity relative to 3d: range over cell lines. How it is done:
(§1) All the cell lines used in this paper were of human origin and purchased from the American Type Culture Collection (ATCC, Manassas, VA, USA). Colon adenocarcinoma (HT-29), non-small cell lung carcinoma (A549), cervix carcinoma (HeLa) and breast adenocarcinoma (MDA-MB-231) cells were grown in RPMI (HT29) or DMEM (A549, HeLa, MDA-MB-231) medium (Gibco, Milano, Italy). Both media were supplemented with 115 units/mL of penicillin G (Gibco, Milano, Italy), 115 μg/mL of streptomycin (Invitrogen, Milano, Italy) and 10% fetal bovine serum (Invitrogen, Milano, Italy). All cell lines were grown at 37 °C in a humidified 5% CO2 atmosphere. The cells were grown in 2 mL of complete medium.
(§2) Stock solutions were prepared for each compound by dissolving in DMSO at the final concentration of 10 mM.
(§3) The cells were seeded in 96-well plates at the appropriate density for each cell line. The respective cell line densities used for the antiproliferative assay were HeLa and HT29 5000 cells/well, A549 4000 cells/well and MDA-MB-231 7000 cells/well. The total volume of medium was 100 µL. After 24 h, the cells were treated by performing serial 5-fold dilutions of the tested compounds starting from a concentration of 10 μM. All experimental conditions were tested in triplicate for statistical analysis. After 72 h of incubation, 10 μL of 100 μg/mL resazurin solution was added to each well and the plate was re-incubated for 3–4 h. The fluorescence of the wells in each plate was monitored using a Spark 10M spectrophotometer (Tecan Group Ltd., Mannedorf, Switzerland) with a 535 nm excitation wavelength and a 600 nm emission wavelength.

Series [2] concerns Bovine brain tubulin. Put plainly: Inhibition of [3H]colchicine binding to tubulin. The conditions noted are these: tubulin 0.5 µM, [3H]colchicine 5 µM, tested compound 5 µM. The procedure: (§4) Bovine brain tubulin was purified as described previously. To evaluate the effects of the compounds on tubulin assembly in vitro [80], varying concentrations were preincubated with 10 μM tubulin in 0.8 M monosodium glutamate (pH 6.6) at 30 °C and the reaction mixtures then cooled to 0 °C. After addition of GTP, the mixtures were transferred to 0 °C cuvettes in Beckman Coulter (Brea, CA, USA) DU-7400/DU-7500 recording spectrophotometers equipped with electronic temperature controllers and warmed to 30 °C, and the assembly of tubulin was observed turbidimetrically. […] Inhibition of colchicine binding to tubulin was measured as described before, except that the reaction mixtures contained 0.5 μM tubulin and 5 μM each of [^3H]colchicine and test compound. Only one DEAE-cellulose filter was used per sample, and filtration was by gravity.
(§5) Bovine brain tubulin (see ref. [79] for details of purification) was used to examine effects on tubulin polymerization and colchicine binding. Briefly, in the polymerization experiments, different compound concentrations were preincubated with 10 µM tubulin for 15 min at 30 °C and cooled on ice. After GTP was added to each reaction mixture, the samples were transferred to 0 °C cuvettes in recording spectrophotometers with electronic temperature controllers. The temperature was raised to 30 °C over about 30 s, and turbidity development was followed for 20 min at 350 nm. […] In the current studies, [^3H]colchicine (from American Radiolabeled Corp., St. Louis, MO) binding was measured after 10 min at 37 °C. Reaction mixtures contained 0.5 µM tubulin and 5.0 µM each of the [^3H]colchicine and the potential inhibitor, and a single DEAE-cellulose filter was used for each sample, with gravity filtration.

Another series concerns MDA-MB-231. The series is described as follows: In vitro cell growth inhibition, resazurin viability assay. The class given is cell-based, human. The conditions noted are these: Homo sapiens, MDA-MB-231; 72 h, resazurin; mean ± SE. How it is done:
as §1, §2, §3

For a further series, the system named is HeLa. The description is as above. The class given is cell-based, human. The settings on record: Homo sapiens; 72 h, resazurin; mean ± SE. How it is done: as §1, §2, §3
Series [3] has as its system Bovine brain tubulin. The series is described as follows: Inhibition of tubulin polymerization (turbidimetric assembly assay). In kind it is biochemical. The conditions noted are these: tubulin at 10 μM, 20 min incubation; read-out: Tubulin Assembly IC50 ± SD. How it is done: as §4, §5
The test system of series [4] is tubulin. Also noted: method as in PMID 25025853. The settings on record: read-out: IC50 inhibition of tubulin polymerization; cited from earlier work.
The subject of a further series is A549. Put plainly: In vitro cell growth inhibition, resazurin viability assay. In kind it is cell-based, human. The settings on record: Homo sapiens, A549; 72 h, resazurin; mean ± SE. The procedure:
as §1, §2, §3
A general note: The colour change of resazurin is a common sign of viable cells or microbes.

A further series relates to HT29. Described as above. In kind it is cell-based, human. The conditions noted are these: Homo sapiens, HT-29; 72 h, resazurin; mean ± SE. How it is done:
as §1, §2, §3

For series [5], the system named is tubulin. The settings on record: cited from earlier work.
Series [6] concerns panel of four cancer cell lines. The conditions noted are these: read-out: IC50 values, range; cited from earlier work.
For a further series, the system named is HeLa cells. The conditions noted are these: read-out: IC50 antiproliferative activity against HeLa cells; cited from earlier work.
Series [7] relates to tubulin. Also noted: method as in PMID 35196595. The settings on record: read-out: IC50 tubulin polymerization inhibitor; cited from earlier work.
Another series relates to HCT-116 cancer cell line. Also noted: method as in PMID 35196595. The settings on record: read-out: IC50 antiproliferative activity against HCT-116; cited from earlier work.
Setting [8] is: on HeLa, A549 and HT-29 cancer cells, read-out: IC50 values, range.

For the molecule `COc1cc(Nc2cc(C)nc3nc(Nc4ccc(C)cc4)nn23)cc(OC)c1OC` [5-methyl-2-(p-toluidino)-7-(3′,4′,5′-trimethoxyanilino)-[1,2,4]triazolo[1,5-a]pyrimidine], the IC50 in the series with cancer cell lines is 520 to 1550 nM.

With `COc1ccc(/C=C\c2cc(OC)c(OC)c(OC)c2)cc1O` [CA-4, combretastatin A-4, reference compound], the IC50 in series [1] (against MDA-MB-231 and HeLa cancer cell lines, read-out: IC50, range) is 4 to 5 nM; in the series on MDA-MB-231, 0.005 ± 0.002 µM; in the series with HeLa, 0.004 ± 0.001 µM; in the series on Bovine brain tubulin [3], […]. The “Colchicine Binding % Inhibition ± SD” value in the series with Bovine brain tubulin [2] was 98 ± 2%.

Regarding `COc1cc(C(=O)n2nc(Nc3ccc(C)cc3)nc2N)cc(OC)c1OC` [Compound 2a], the concentration for half-maximal inhibition (IC50) with tubulin [4] is 750 nM.

As for `COc1cc(-c2ccnc3nc(Nc4ccc(C)c(C)c4)nn23)cc(OC)c1OC` [Compound 3f, N-(3,4-Dimethylphenyl)-7-(3,4,5-trimethoxyphenyl)-[1,2,4]triazolo[1,5-a]pyrimidin-2-amine], the melting point lay within 189 to 190 °C. Also, the IC50 in series [1] (setting [8]) was 67 to 160 nM. Further, the “fold reduction in antiproliferative activity relative to 3d” value in series [1] is 2–5 fold. Further, in the series on Bovine brain tubulin [2], the “Colchicine Binding % Inhibition ± SD” value is on record as 18 ± 5%. The molecule further displayed an IC50 in the series with MDA-MB-231 greater than 10 µM. Besides, the IC50 in the series with A549 was 0.16 ± 0.045 µM. For the same molecule, the IC50 in the series on HeLa worked out at 0.067 ± 0.0023 µM. This molecule returned an IC50 with HT29 of 0.16 ± 0.041 µM. The IC50 with Bovine brain tubulin [3] worked out at 800 ± 100 nM.

For the molecule `CCc1ccc(Nc2nc3nccc(-c4cc(OC)c(OC)c(OC)c4)n3n2)cc1` [Compound 3h, N-(4-Ethylphenyl)-7-(3,4,5-trimethoxyphenyl)-[1,2,4]triazolo[1,5-a]pyrimidin-2-amine], the melting point fell in the range of 199 to 200 °C. Also, the IC50 in series [1] (setting [8]) was 160 to 240 nM. The “fold reduction in antiproliferative activity relative to 3d” value in series [1] is 5–7 fold. In the series on Bovine brain tubulin [2], the “Colchicine Binding % Inhibition ± SD” value is recorded as 21 ± 0.9%. In the series on MDA-MB-231, the IC50 was greater than 10 µM. Also, it took 0.2 ± 0.044 µM to reach half-maximal inhibition in the series with A549 (IC50). This molecule yielded an IC50 in the series on HeLa of 0.24 ± 0.074 µM. In the series on HT29, half-maximal inhibition (IC50) required 0.16 ± 0.033 µM. Moreover, in the series with Bovine brain tubulin [3], the half-maximal inhibitory concentration (IC50) is 1900 ± 200 nM.

`COc1cccc(Nc2nc3nccc(-c4cc(OC)c(OC)c(OC)c4)n3n2)c1` [Compound 3l, N-(3-Methoxyphenyl)-7-(3,4,5-trimethoxyphenyl)-[1,2,4]triazolo[1,5-a]pyrimidin-2-amine]: the melting point was 165 to 166 °C. Further, the “Colchicine Binding % Inhibition ± SD” value in the series on Bovine brain tubulin [2] was 39 ± 5%. The same molecule showed an IC50 in the series on MDA-MB-231 of 1.76 ± 0.9 µM. In the series with A549, this molecule had an IC50 of 0.76 ± 0.18 µM. This molecule also gave an IC50 in the series with HeLa of 0.44 ± 0.08 µM. In addition, the IC50 in the series on HT29 turned out to be 0.76 ± 0.18 µM. Further, the IC50 in the series on Bovine brain tubulin [3] is 2200 ± 200 nM.

With `COc1ccc(-c2nc3nccc(-c4cc(OC)c(OC)c(OC)c4)n3n2)cc1O` [Compound 4], the “fold greater potency than CA-4, inhibition of tubulin assembly” value in the series on tubulin [5] is reported as 3 fold. In addition, the IC50 in [6] was 3000 to 18000 nM; with HeLa cells, 60 nM.

Take `COc1cc(-c2cc(-c3ccc(Cl)cc3)nc3nc(N)nn23)cc(OC)c1OC` [Compound 5]: the IC50 was 3840 nM with tubulin [7] and 530 nM in the series with HCT-116 cancer cell line.
